Drawing on ChEMBL document CHEMBL1134311, “Nonsteroidal selective glucocorticoid modulators: the effect of C-5 alkyl substitution on the transcriptional activation/repression profile of 2,5-dihydro-10-methoxy-2,2,4-trimethyl-1H-[1]benzopyrano[3,4-f]quinolines” (J Med Chem, 2001), this text covers Ki and EC50 for 22 compounds.

Assay [1] addresses T1, Glucocorticoid receptor (Homo sapiens, UniProt P04150).
T1 sequence (P04150 whole entry): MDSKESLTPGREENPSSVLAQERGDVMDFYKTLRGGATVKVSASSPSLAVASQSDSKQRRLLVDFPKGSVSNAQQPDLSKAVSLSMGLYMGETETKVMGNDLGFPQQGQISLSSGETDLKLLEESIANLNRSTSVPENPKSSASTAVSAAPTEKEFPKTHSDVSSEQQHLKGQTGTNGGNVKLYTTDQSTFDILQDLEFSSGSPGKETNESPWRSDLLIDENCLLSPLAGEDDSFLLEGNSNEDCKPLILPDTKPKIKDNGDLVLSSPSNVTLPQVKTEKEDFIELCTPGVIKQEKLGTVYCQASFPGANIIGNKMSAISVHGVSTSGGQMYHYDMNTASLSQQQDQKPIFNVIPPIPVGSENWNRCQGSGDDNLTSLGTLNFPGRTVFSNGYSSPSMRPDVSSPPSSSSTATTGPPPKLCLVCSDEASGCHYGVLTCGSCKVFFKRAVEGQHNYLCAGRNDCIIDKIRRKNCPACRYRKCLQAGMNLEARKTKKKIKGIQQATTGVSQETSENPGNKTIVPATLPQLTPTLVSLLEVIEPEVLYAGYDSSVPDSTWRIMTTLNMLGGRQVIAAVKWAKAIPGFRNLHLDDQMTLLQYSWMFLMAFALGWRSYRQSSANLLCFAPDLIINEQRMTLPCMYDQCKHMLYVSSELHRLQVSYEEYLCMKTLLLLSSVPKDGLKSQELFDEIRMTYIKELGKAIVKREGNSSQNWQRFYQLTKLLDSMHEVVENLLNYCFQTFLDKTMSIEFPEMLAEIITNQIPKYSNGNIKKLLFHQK
In words: Binding affinity towards glucocorticoid receptor (GR) by displacing [3H]dexamethasone.

Assay [2] concerns the target T1, Glucocorticoid receptor. The assay is described as follows: The effective concentration in CV-1 cells for glucocorticoid response element activation (GRE). It is filed as functional, cell-based.
The target of assay [3] is T1, Glucocorticoid receptor. The assay is described as follows: Effective concentration in HepG2 cells transfected with LUC gene (E-sel-Luc). It is filed as functional, cell-based.
For the next assay, the target named is T2, Progesterone receptor (Homo sapiens, UniProt P06401).
T2 sequence (P06401 whole entry): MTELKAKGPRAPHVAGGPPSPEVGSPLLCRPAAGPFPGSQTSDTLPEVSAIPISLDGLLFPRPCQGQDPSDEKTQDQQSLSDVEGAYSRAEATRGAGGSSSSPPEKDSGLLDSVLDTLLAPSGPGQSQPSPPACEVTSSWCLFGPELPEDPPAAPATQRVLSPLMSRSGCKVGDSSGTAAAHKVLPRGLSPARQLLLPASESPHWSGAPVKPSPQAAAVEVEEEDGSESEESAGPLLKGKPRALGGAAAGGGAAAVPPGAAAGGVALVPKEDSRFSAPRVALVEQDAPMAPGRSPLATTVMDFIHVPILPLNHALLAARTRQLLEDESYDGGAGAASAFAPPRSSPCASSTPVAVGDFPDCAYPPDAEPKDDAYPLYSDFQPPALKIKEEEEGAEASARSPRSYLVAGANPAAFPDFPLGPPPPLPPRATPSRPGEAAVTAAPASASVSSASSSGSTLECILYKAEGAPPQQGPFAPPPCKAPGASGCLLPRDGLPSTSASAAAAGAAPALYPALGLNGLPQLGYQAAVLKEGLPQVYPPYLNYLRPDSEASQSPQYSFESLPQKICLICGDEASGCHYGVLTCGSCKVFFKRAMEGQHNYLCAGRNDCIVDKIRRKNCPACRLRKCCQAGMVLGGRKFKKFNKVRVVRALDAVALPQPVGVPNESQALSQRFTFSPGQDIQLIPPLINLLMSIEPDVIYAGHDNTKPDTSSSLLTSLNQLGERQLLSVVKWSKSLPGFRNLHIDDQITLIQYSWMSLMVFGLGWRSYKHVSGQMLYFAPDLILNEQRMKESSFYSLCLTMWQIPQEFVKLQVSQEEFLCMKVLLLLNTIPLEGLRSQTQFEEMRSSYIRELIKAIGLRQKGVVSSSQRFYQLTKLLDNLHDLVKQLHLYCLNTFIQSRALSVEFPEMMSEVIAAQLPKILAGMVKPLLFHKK
In words: Binding affinity towards progesterone receptor (PR) by displacing [3H]progesterone.

One may read the Ki as a dissociation constant, usually derived from enzyme kinetics or from competition with a known ligand. What is called EC50 is the concentration needed to bring the measured effect to its halfway point.

Regarding `C/C=C/C1Oc2cccc(OC)c2-c2ccc3c(c21)C(C)=CC(C)(C)N3` (centres undefined), the Ki at Glucocorticoid receptor [1] amounted to 9 nM; at Progesterone receptor, 2100 nM. In addition, the EC50 on Glucocorticoid receptor [2] came to 400 nM; on Glucocorticoid receptor [3], 144 nM.
The like results for `COc1cccc2c1-c1ccc3c(c1C(CC(C)C)O2)C(C)=CC(C)(C)N3` (centres undefined) were, in that order, 9.5 nM, above 5000 nM, 223 nM and 69 nM.
`C#CCC1Oc2cccc(OC)c2-c2ccc3c(c21)C(C)=CC(C)(C)N3` (centres undefined): the EC50 on Glucocorticoid receptor [2] was 34 nM; at Glucocorticoid receptor [3] it was 27 nM. In addition, at Progesterone receptor, the affinity corresponds to a Ki of 760 nM.
In the case of `C/C=C\C1Oc2cccc(OC)c2-c2ccc3c(c21)C(C)=CC(C)(C)N3` (centres undefined), the EC50 at Glucocorticoid receptor [2] worked out at 460 nM; on Glucocorticoid receptor [3], 168 nM.
Take `COc1cccc2c1-c1ccc3c(c1C(CC(=O)O)O2)C(C)=CC(C)(C)N3` (centres undefined): the Ki on Glucocorticoid receptor [1] and on Progesterone receptor was above 5000 nM throughout. Besides, the EC50 on Glucocorticoid receptor [2] and at Glucocorticoid receptor [3] was above 5000 nM each time.
Regarding `CNC(=O)CC1Oc2cccc(OC)c2-c2ccc3c(c21)C(C)=CC(C)(C)N3` (centres undefined), the Ki is 3200 nM on Glucocorticoid receptor [1] and above 5000 nM at Progesterone receptor. Besides, the EC50 at Glucocorticoid receptor [2] and at Glucocorticoid receptor [3] was above 5000 nM each time.
The compound `COc1cccc2c1-c1ccc3c(c1C(CCO)O2)C(C)=CC(C)(C)N3` (centres undefined) displayed a Ki on Progesterone receptor above 5000 nM.
`COc1cccc2c1-c1ccc3c(c1CO2)C(C)=CC(C)(C)N3`: the EC50 at Glucocorticoid receptor [2] and on Glucocorticoid receptor [3] was above 5000 nM throughout. For the same compound, on Progesterone receptor, the Ki was above 5000 nM.
With `COc1cccc2c1-c1ccc3c(c1C(C(C)C)O2)C(C)=CC(C)(C)N3` (centres undefined), the EC50 is 146 nM on Glucocorticoid receptor [2] and 39 nM on Glucocorticoid receptor [3]. Besides, the Ki at Progesterone receptor was above 5000 nM.
Turning to `CCC1Oc2cccc(OC)c2-c2ccc3c(c21)C(C)=CC(C)(C)N3` (centres undefined), the figures for the EC50 on Glucocorticoid receptor [2] and at Glucocorticoid receptor [3] were 264 nM and 90 nM, respectively. The same compound gave a Ki on Progesterone receptor above 5000 nM.
For the compound `COc1cccc2c1-c1ccc3c(c1C(CC(=O)N(C)C)O2)C(C)=CC(C)(C)N3` (centres undefined), the EC50 on Glucocorticoid receptor [2] and at Glucocorticoid receptor [3] was above 5000 nM in each case. The Ki on Progesterone receptor is above 5000 nM.
At Progesterone receptor, `COc1cccc2c1-c1ccc3c(c1C(CCN(C)C)O2)C(C)=CC(C)(C)N3` (centres undefined) yielded a Ki above 5000 nM.
Still for that read-out and setting: the value for `COc1cccc2c1-c1ccc3c(c1C(C1CCCCC1)O2)C(C)=CC(C)(C)N3` (centres undefined) was above 5000 nM.
In the case of `C=CCCC1Oc2cccc(OC)c2-c2ccc3c(c21)C(C)=CC(C)(C)N3` (centres undefined), the values for the Ki on Glucocorticoid receptor [1] and on Progesterone receptor were 8.1 nM and above 5000 nM, respectively. Further, the EC50 turned out to be 78 nM on Glucocorticoid receptor [2] and 22 nM at Glucocorticoid receptor [3].
The matching figures for `CCCC1Oc2cccc(OC)c2-c2ccc3c(c21)C(C)=CC(C)(C)N3` (centres undefined): 5 nM, above 5000 nM, 75 nM and 70 nM.
In turn, `COc1cccc2c1-c1ccc3c(c1C(C1CCCC1)O2)C(C)=CC(C)(C)N3` (centres undefined) had a Ki on Progesterone receptor above 5000 nM.
Turning to `COc1cccc2c1-c1ccc3c(c1C(C(N)=O)O2)C(C)=CC(C)(C)N3` (centres undefined), the Ki on Glucocorticoid receptor [1] and on Progesterone receptor was above 5000 nM each time. Besides, the EC50 on Glucocorticoid receptor [2] and at Glucocorticoid receptor [3] was above 5000 nM throughout.
On Progesterone receptor, `COc1cccc2c1-c1ccc3c(c1C(Cc1ccccc1)O2)C(C)=CC(C)(C)N3` (centres undefined) gave a Ki above 5000 nM.
On to `COc1cccc2c1-c1ccc3c(c1C(c1cccc(OCSC)c1)O2)C(C)=CC(C)(C)N3` (centres undefined), for which the EC50 is 9 nM on Glucocorticoid receptor [2] and 4 nM on Glucocorticoid receptor [3]. On Progesterone receptor, this compound came in with a Ki above 5000 nM.
With `C=CCC1Oc2cccc(OC)c2-c2ccc3c(c21)C(C)=CC(C)(C)N3` (racemic) [AL-43], the Ki was 2.5 nM on Glucocorticoid receptor [1] and 1800 nM at Progesterone receptor. Further, the EC50 was 33 nM on Glucocorticoid receptor [2] and 13 nM on Glucocorticoid receptor [3].
`C=CCC1Oc2cccc(OC)c2-c2ccc3c(c21)C(C)=CC(C)(C)N3` (single isomer, unassigned; (-)) [AL-43]: the EC50 at Glucocorticoid receptor [2] is 14 nM; on Glucocorticoid receptor [3], 6.9 nM. At Progesterone receptor, this compound yielded a Ki of 1300 nM.
Turning to `C=CCC1Oc2cccc(OC)c2-c2ccc3c(c21)C(C)=CC(C)(C)N3` (stereo in doubt; 37) [AL-43], the Ki was 150 nM on Glucocorticoid receptor [1] and above 5000 nM at Progesterone receptor. Further, the EC50 came to 520 nM at Glucocorticoid receptor [2] and 450 nM on Glucocorticoid receptor [3].
